Experimental data taken from patent EP4818187A1, “COMPOUND AND USE THEREOF” (Ganzhou Hemay Pharmaceutical, Co., Ltd, priority 2023, dated 2025).

Assays:
[1] = system: MDA-MB-468 (human triple-negative breast cancer); assay: In vitro inhibitory effect against human tumor cells (SRB); format: cell-based; settings: MDA-MB-468, 72 h, MDA-MB-468, SRB, 3 days
Protocol: (§1) Cells were cultured with 5% CO2 at 37°C and saturated humidity until they reached a logarithmic growth phase (usually adherent cells were nearly fully confluent). After removing adherent cells by trypsin/EDTA digestion, the cells were collected for subsequent experiments.
(§2) The cells were inoculated into a 96-well cell culture plate (hereinafter referred to as the 96-well plate) based on the cell count shown in Table 2, cultured overnight to achieve cell adherence, and then, after different concentrations of the test compound were added, further cultured for a total of 3 days. Finally, the total cell protein in the assay wells was assayed by SRB, or the cell viability was assessed by MTT:
(§3) 2.1 Assaying total cell protein by SRB: the modification is based on the method in the literature (V. Vichai and K. Kirtikara. Sulforhodamine B colorimetric assay for cytotoxicity screening. Nature Protocols. 2006, 1: 1112-1116). Specific method: the culture medium was pipetted out from the wells, the cells were fixed with 10% trichloroacetic acid for more than 1 h, and trichloroacetic acid was removed; the cells were washed with H2O, and stained with 0.4% SRB for 15-30 min; after excess SRB was removed, the cells were washed with 1% acetic acid; 100 µl of 10 mM tris(trihydroxymethylaminomethane) was added to dissolve the protein-bound SRB, followed by assay at a wavelength of 570 nm.
(§4) 2.3: 1-2 mg of β-glucuronidase was weighed, and dissolved in PBS to prepare 2 mg/mL stock solution. Prior to use, the stock solution was diluted with a complete medium to prepare 12.5 µg/mL enzyme working solution. For assay wells requiring the enzyme, 80 µL of the enzyme working solution was added, with the β-glucuronidase at a concentration of 1 µg/well; and for assay wells not requiring the enzyme, 80 µL of the complete medium was added.
(§5) 1-3 mg of the test compound was weighed, and dissolved in DMSO to prepare 20 mM stock solution. The stock solution was diluted in a 3-fold gradient with DMSO, then diluted 100-fold with RPMI1640 basal medium to obtain 10× working solutions, with a total of 8 concentrations. 20 µL of the 10× working solutions were add to the assay wells, with the final volume of each well of 200 µL, and with the DMSO at a concentration of 0.1%.
(§6) 2.4 Calculation of inhibitory activity of compound: the experiment includes a compound test group, a compound-free positive solvent control group (PC), and a negative solvent control group (NC) without cells and the compound. Inhibition rate = [1−(testvalue−NCmean)/(PCmean−NCmean)] × 100% [formula]
(§7) The mean and SD of the inhibition rate were obtained from replicate assay wells. A curve was plotted with the compound concentrations distributed in a logarithmic form as the abscissa and with the mean inhibition rates as the ordinate, and was fitted with a 4-parameter logistic equation. The compound concentration corresponding to 50% inhibition rate on the curve is the IC50 value. Table 2: Culture medium formulation and cell inoculation concentration for human tumor cell lines

[2] = system: HepG2 (human liver cancer cell); assay: as above; format: cell-based; settings: HepG2, 72 h, 3 days
Protocol: as §1, §2, §3, §4, §5, §6, §7

[3] = system: A375 (human malignant melanoma); assay: as above; format: cell-based; settings: A-375, 72 h, 3 days
Protocol: as §1, §2, §3, §4, §5, §6, §7

[4] = system: SW620 (human colorectal cancer); assay: as above; format: cell-based; settings: SW-620, 72 h, 3 days
Protocol: as §1, §2, §3, §4, §5, §6, §7

[5] = system: 22RV1 (human prostate cancer); assay: as above; format: cell-based; settings: 22Rv1, 72 h, 22RV1, SRB, 3 days
Protocol: as §1, §2, §3, §4, §5, §6, §7

[6] = system: HCC827 (human non-small cell lung cancer); assay: as above; format: cell-based; settings: HCC827, 72 h, 3 days
Protocol: as §1, §2, §3, §4, §5, §6, §7

[7] = system: NCI-H1975 (human non-small cell lung cancer); assay: In vitro inhibitory effect against human tumor cells (MTT); format: cell-based; settings: NCI-H1975, 72 h, 3 days
Protocol: as §1, §2
(§8) 2.2 Assaying cell viability by MTT: the modification is based on the method in the literature (J. Carmichael, W. DeGraff, A. Gazdar et al., Evaluation of a tetrazolium-based semiautomated colorimetric assay: assessment of chemosensitivity testing. Cancer Research. 1987, 47: 936-942). Specific method: For well-adherent cells: the medium was pipetted out, 100 µL of a basal medium containing 0.5 mg/mL MTT (medium free of fetal bovine serum (FBS) and other additives) was added to each well, and culture was continued for additional 3 h. The MTT-containing basal medium was pipetted out, and 100 µL of DMSO was added to each well to dissolve formazan, followed by assay at a wavelength of 490 nm.
(§9) For poorly-adherent cells: MTT solution was directly added to a concentration of 0.5 mg/mL, culture was continued for additional 3 h, and an equal volume of triple solvent was added to the system to dissolve formazan, followed by assay at a wavelength of 570 nm.
as §4, §5, §6, §7

[8] = system: NCI-N87 (human gastric cancer cell); assay: as above; format: cell-based; settings: NCI-N87, 72 h, 3 days
Protocol: as §1, §2, §8, §9, §4, §5, §6, §7

[9] = system: HCT116 (human colorectal cancer); assay: as above; format: cell-based; settings: HCT-116, 72 h, 3 days
Protocol: as §1, §2, §8, §9, §4, §5, §6, §7

[10] = system: SK-OV-3 (human ovarian cancer); assay: as above; format: cell-based; settings: SK-OV-3, 72 h, SK-OV-3, MTT, 3 days
Protocol: as §1, §2, §8, §9, §4, §5, §6, §7

[11] = system: Fadu (human pharyngeal squamous cell carcinoma); assay: as above; format: cell-based; settings: 72 h, 3 days
Protocol: as §1, §2, §8, §9, §4, §5, §6, §7

[12] = system: BxPC-3 (human pancreatic cancer in situ); assay: In vitro inhibitory effect against human tumor cells (MTT or SRB); format: cell-based; settings: BXPC-3, 72 h, BxPC-3, test method printed MTT (head: SRB), 3 days
Protocol: as §1, §2, §3, §8, §9, §4, §5, §6, §7

[13] = system: human ovarian cancer SK-OV-3; assay: Biological Example 6: in vivo xenograft model of human ovarian cancer SK-OV-3; design: species or system Balb/c-nu nude mice; settings: SK-OV-3 xenograft, nude mice, 0.8 mg/kg i.v. qw×3
[14] = system: human non-small cell lung cancer NCI-H1975; assay: Biological Example 8: in vivo xenograft model of human non-small cell lung cancer NCI-H1975; design: species or system Balb/c-nu nude mice; settings: nude mice
[15] = With addition of βGU (1 µg/well)

## CC[C@H](C)[C@@H]([C@@H](CC(=O)N1CCC[C@H]1[C@H](OC)[C@@H](C)C(=O)N[C@H](C)[C@@H](O)c1ccccc1)OC)N(C)C(=O)[C@@H](NC(=O)[C@H](C(C)C)[N+](C)(C)Cc1ccc(O[C@@H]2O[C@H](C(=O)[O-])[C@@H](O)[C@H](O)[C@H]2O)cc1OCc1cn(CCCCCC(=O)Nc2ccc(-c3ccc(/N=N/c4ccc5c(S(=O)(=O)[O-])cc(S(=O)(=O)[O-])c(N)c5c4O)c(C)c3)cc2C)nn1)C(C)C.[Na+].[Na+] [Example compound 4]
[1]; [15]
  IC50: 0.96 nM
[1]; βGU-free
  IC50: 8.8 nM
[2]; [15]
  IC50: 4.7 nM
[2]; βGU-free
  IC50: 72 nM
[3]; [15]
  IC50: 5 nM
[3]; βGU-free
  IC50: 66 nM
[4]; [15]
  IC50: 3.4 nM
[4]; βGU-free
  IC50: 67 nM
[5]; [15]
  IC50: 7 nM
[5]; βGU-free
  IC50: 115 nM
[6]; [15]
  IC50: 3.4 nM
[6]; βGU-free
  IC50: 54 nM
[7]; [15]
  IC50: 5.5 nM
[7]; βGU-free
  IC50: 86 nM
[8]; [15]
  IC50: 2.3 nM
[8]; βGU-free
  IC50: 58 nM
[9]; [15]
  IC50: 6.6 nM
[9]; βGU-free
  IC50: 139 nM
[10]; [15]
  IC50: 5.1 nM
[10]; βGU-free
  IC50: 215 nM
[11]; [15]
  IC50: 1.7 nM
[11]; βGU-free
  IC50: 21 nM
[12]; [15]
  IC50: 1.9 nM
[12]; βGU-free
  IC50: 44 nM
[13]
  Final body weight change (%): 4.2%
  Maximum body weight change (%): 4.8, d17%
  Relative volume RTV (x±S.D.): 0.79±0.79
  T/C (%): 7.6%
  Tumor inhibition rate (%): 96.0%
  Tumor weight (g, x±S.D.): 0.055 ± 0.077 g
[13]; End
  Body weight (g, x±S.D.) End: 24.2 ± 0.9 g
[13]; Start
  Body weight (g, x±S.D.) Start: 23.3 ± 0.8 g
[14]; 0.8 mg/kg i.v. qw×3
  Final body weight change (%): 4.9%
  Maximum body weight change (%): 4.9, d24%
  Relative volume RTV (x±S.D.): 0.33±0.17
  T/C (%): 2.7%
  Tumor inhibition rate (%): 97.3%
  Tumor weight (g, x±S.D.): 0.072 ± 0.046 g
[14]; 0.8 mg/kg i.v. qw×3, End 24d
  Body weight (g, x±S.D.) End 24d: 26.0 ± 1.1 g
[14]; 0.8 mg/kg i.v. qw×3, Start
  Body weight (g, x±S.D.) Start: 24.8 ± 0.8 g
